Test results taken from ChEMBL document CHEMBL4229350, “Antimicrobial activity and self-assembly behavior of antimicrobial peptide chensinin-1b with lipophilic alkyl tails” (Eur J Med Chem, 2018).
In brackets after ≈: the same amount, converted by molar mass. Activity calls are given as the source filed them. The calls are words filed in the database; no cut-off is given here. Peptide text beside a SMILES is read from it. * marks the point of attachment. Palmitoyl = CCCCCCCCCCCCCCCC(=O)*

Experiments:
[1] = Self-assembly property assessed as diameter of tightly packed nanofibers at 1 mg/ml at pH 2 by TEM analysis; type: physicochemical
Escherichia coli [2] = test: Antimicrobial activity against Escherichia coli AS 1.349 assessed as induction of bacterial cytoplasmic membrane depolarization at 2 times MIC after 7 mins by diSC3-5 dye-based fluorescence assay; type: functional, organism-based
[3] = Self-assembly property assessed as diameter of monodispersed micelles at 1 mg/ml at pH 2 by TEM analysis; type: physicochemical
Lipid bilayer [4] = test: Induction of membrane permeabilization in calcein loaded PC/cholesterol large unilamellar vesicles assessed as calcein leakage at 50 uM after 10 mins by fluorescence assay relative to control
HeLa = test: Cytotoxicity against human HeLa cells assessed as reduction in cell viability after 1 hr by MTT assay; type: functional, cell-based
Staphylococcus aureus [5] = test: Antimicrobial activity against Staphylococcus aureus AS 1.72 assessed as induction of outer membrane permeabilization by measuring NPN uptake by fluorescence assay; type: functional, organism-based
Lipid bilayer [6] = test: Induction of membrane permeabilization in calcein loaded PG/CL/PE large unilamellar vesicles assessed as calcein leakage at 3 uM after 10 mins by fluorescence assay relative to control
Enterococcus faecalis = test: Antimicrobial activity against Enterococcus faecalis CGMCC 1.595 after 18 hrs by micro dilution method; type: functional; conditions: CGMCC 1.595, 18 h
Staphylococcus aureus [7] = test: Antimicrobial activity against Staphylococcus aureus AS 1.72 assessed as induction of bacterial cytoplasmic membrane depolarization at 2 times MIC after 6 mins by diSC3-5 dye-based fluorescence assay; type: functional, organism-based
Lipid bilayer [8] = test: Induction of membrane permeabilization in calcein loaded PG/CL/PE large unilamellar vesicles assessed as calcein leakage at 6 uM after 15 mins by fluorescence assay relative to control
Lipopolysaccharide (LPS) [9] = test: Induction of LPS micelles disaggergation assessed as abundant particle size formation at 2 uM by DLS method
Lipopolysaccharide (LPS) [10] = test: Binding affinity to Escherichia coli 0111:B4 LPS by ITC method
U-937 [11] = test: Antiinflammatory activity in human U937 cells assessed as inhibition of LPS-induced IL-6 production at 3.13 uM after 24 hrs by ELISA relative to control; type: functional; conditions: U-937, 24 h
[12] = Cytotoxicity against human U937 cells assessed as cell viability at 3.13 to 12.6 uM after 1 hr by MTT assay relative to control; type: cell-based, U-937; conditions: read-out: Activity
Escherichia coli [13] = test: Antimicrobial activity against Escherichia coli AS 1.349 assessed as induction of outer membrane permeabilization by measuring NPN uptake by fluorescence assay; type: functional, organism-based
Bacillus cereus = test: Antimicrobial activity against Bacillus cereus AS 1.126 after 18 hrs by micro dilution method; type: functional; conditions: AS 1.126, 18 h
A-375 = test: Cytotoxicity against human A375 cells assessed as reduction in cell viability after 1 hr by MTT assay; type: functional, cell-based; conditions: A-375, 1 h
U-937 [14] = test: Antiinflammatory activity in human U937 cells assessed as inhibition of LPS-induced IL-6 production at 6.25 uM after 24 hrs by ELISA relative to control; type: functional; conditions: U-937, 24 h
Pseudomonas aeruginosa = test: Antimicrobial activity against Pseudomonas aeruginosa CGMCC 1.860 after 18 hrs by micro dilution method; type: functional; conditions: CGMCC 1.860, 18 h
Lipid bilayer [15] = test: Induction of membrane permeabilization in calcein loaded LPS/PC/PG large unilamellar vesicles assessed as calcein leakage at 50 uM after 15 mins by fluorescence assay relative to control
U-937 [16] = test: Antiinflammatory activity in human U937 cells assessed as inhibition of LPS-induced TNF-alpha production at 6.25 uM after 24 hrs by ELISA relative to control; type: functional; conditions: U-937, 24 h
U-937 [17] = test: Antiinflammatory activity in human U937 cells assessed as inhibition of LPS-induced IL-6 production after 24 hrs by ELISA; type: functional, cell-based
U-937 [18] = test: Antiinflammatory activity in human U937 cells assessed as inhibition of LPS-induced TNF-alpha production at 3.13 uM after 24 hrs by ELISA relative to control; type: functional; conditions: U-937, 24 h
Lipid bilayer [19] = test: Induction of membrane permeabilization in PG/CL large unilamellar vesicles assessed as blue shift at compound to lipid ratio of 60 by Tryptophan fluorescence spectroscopy
Lipid bilayer [20] = test: Induction of membrane permeabilization in calcein loaded PG/CL large unilamellar vesicles assessed as calcein leakage at 6 uM after 15 mins by fluorescence assay relative to control
[21] = Self-assembly property assessed as diameter of monodispersed micelles at 1 mg/ml at pH 7 by TEM analysis; type: physicochemical
Lactococcus lactis = test: Antimicrobial activity against Streptococcus lactis AS 1.1690 after 18 hrs by micro dilution method; type: functional; conditions: AS 1.1690, 18 h
[22] = Hemolytic activity against human erythrocytes after 1 hr; type: ADME, cell-based, Erythrocyte
Lipid bilayer [23] = test: Induction of membrane permeabilization in calcein loaded PG/CL large unilamellar vesicles assessed as calcein leakage at 3 uM after 10 mins by fluorescence assay relative to control
U-937 [24] = test: Antiinflammatory activity in human U937 cells assessed as inhibition of LPS-induced TNF-alpha production at 12.6 uM after 24 hrs by ELISA relative to control; type: functional; conditions: U-937, 24 h
Lipopolysaccharide (LPS) [25] = test: Binding affinity to Escherichia coli 0111:B4 LPS assessed as equilibrium association constant by ITC method
Lipopolysaccharide (LPS) [26] = test: Induction of LPS micelles disaggergation assessed as small particle distribution at 2 uM by DLS method
U-937 [27] = test: Antiinflammatory activity in human U937 cells assessed as inhibition of LPS-induced TNF-alpha production after 24 hrs by ELISA; type: functional, cell-based
Lipid bilayer [28] = test: Induction of membrane permeabilization in PG/CL/PE large unilamellar vesicles assessed as blue shift at compound to lipid ratio of 10 by Tryptophan fluorescence spectroscopy
U-937 [29] = test: Antiinflammatory activity in human U937 cells assessed as inhibition of LPS-induced IL-6 production at 12.6 uM after 24 hrs by ELISA relative to control; type: functional; conditions: U-937, 24 h
Lipid bilayer [30] = test: Induction of membrane permeabilization in calcein loaded LPS/PC/PG large unilamellar vesicles assessed as calcein leakage after 15 mins by fluorescence assay
Lipid bilayer [31] = test: Induction of membrane permeabilization in PC/cholesterol large unilamellar vesicles assessed as blue shift by Tryptophan fluorescence spectroscopy
Staphylococcus aureus [32] = test: Antimicrobial activity against Staphylococcus aureus AS 1.72 after 18 hrs by micro dilution method; type: functional; conditions: AS 1.72, 18 h
Escherichia coli [33] = test: Antimicrobial activity against Escherichia coli AS 1.349 after 18 hrs by micro dilution method; type: functional; conditions: AS 1.349, 18 h
Enterococcus faecium = test: Antimicrobial activity against Enterococcus faecium CGMCC 1.2334 after 18 hrs by micro dilution method; type: functional; conditions: CGMCC 1.2334, 18 h
MCF7 = test: Cytotoxicity against human MCF7 cells assessed as reduction in cell viability after 1 hr by MTT assay; type: functional, cell-based; conditions: MCF7, 1 h

Activity [1]: 200 nm | Activity [3]: 5460 nm | Activity (Lipid bilayer [4]): 20% | Activity (Lipid bilayer [6]): 33% | MIC (Enterococcus faecalis): 6.25 µM (≈ 17.4 µg/mL) | Activity (Lipid bilayer [8]): 54% | Activity (Lipopolysaccharide (LPS) [9]): 100 nm | MIC (Bacillus cereus): 6.25 µM (≈ 17.4 µg/mL) | MIC (Pseudomonas aeruginosa): 6.25 µM (≈ 17.4 µg/mL) | Activity (Lipid bilayer [15]): 55% | Activity (Lipid bilayer [19]): 18 nm | Activity (Lipid bilayer [20]): 80% | Activity [21]: 24 nm | MIC (Lactococcus lactis): 3.13 µM (≈ 8.71 µg/mL) | Activity (Lipid bilayer [23]): 46% | Ka (Lipopolysaccharide (LPS) [25]): 114 mM⁻¹ | Activity (Lipopolysaccharide (LPS) [26]): 400 nm | Activity (Lipid bilayer [28]): 14 nm | Activity (Lipid bilayer [30]): Dose-dependent effect | Activity (Lipid bilayer [31]): inactive | MIC (Staphylococcus aureus [32]): 12.5 µM (≈ 34.8 µg/mL) | MIC (Escherichia coli [33]): 12.5 µM (≈ 34.8 µg/mL) | MIC (Enterococcus faecium): 3.13 µM (≈ 8.71 µg/mL)
Compound: CCCCCCCCCCCCCCCC(=O)N[C@@H](CO)C(=O)N[C@@H](CCCCN)C(=O)N[C@H](C(=O)N[C@@H](Cc1c[nH]c2ccccc12)C(=O)N[C@@H](CCCNC(=N)N)C(=O)N[C@@H](Cc1cnc[nH]1)C(=O)N[C@@H](Cc1c[nH]c2ccccc12)C(=O)N[C@@H](CCCNC(=N)N)C(=O)N[C@@H](CCCNC(=N)N)C(=O)N[C@@H](Cc1ccccc1)C(=O)N[C@@H](Cc1c[nH]c2ccccc12)C(=O)N[C@@H](Cc1cnc[nH]1)C(=O)N[C@@H](CCCNC(=N)N)C(=O)N[C@@H](C)C(=O)N[C@@H](Cc1cnc[nH]1)C(=O)N[C@@H](CCCNC(=N)N)C(=O)N[C@@H](CCCCN)C(=O)N[C@@H](CC(C)C)C(=O)O)C(C)C (Palmitoyl-SKVWRHWRRFWHRAHRKL-OH)
Activity (Escherichia coli [2]): Active | IC50 (HeLa): 21 µM | Activity (Staphylococcus aureus [5]): Dose-dependent effect | Activity (Staphylococcus aureus [7]): Active | Kd (Lipopolysaccharide (LPS) [10]): 8.77 µM | inhibition at 3.13 µM (U-937 [11]): 27% | viability at 1 h, up to 12.6 µM [12]: 80% | Activity (Escherichia coli [13]): Dose-dependent effect | IC50 (A-375): 18.2 µM | inhibition at 6.25 µM (U-937 [14]): 31% | inhibition at 6.25 µM (U-937 [16]): 32% | inhibition (U-937 [17]): Dose-dependent effect | inhibition at 3.13 µM (U-937 [18]): 24% | HC50 at 1 h [22]: > 500 µM | inhibition at 12.6 µM (U-937 [24]): 35% | inhibition (U-937 [27]): Dose-dependent effect | inhibition at 12.6 µM (U-937 [29]): 35% | IC50 (MCF7): 20.6 µM
